Measured values: US11440904B2, “Substituted pyrimidines, pharmaceutical compositions and therapeutic methods thereof” (priority 2017, dated 2022)

Tests used:
EOL-1 cells = assay: Cancer cell growth inhibition, EOL-1; type: cell-based; conditions: Homo sapiens, EOL1, 72 hr, cell viability
Protocol: (§1) In order to test certain compounds of Compounds 1 to 24 for cancer cell growth inhibition, a leukemia cancer cell line EOL-1, and triple negative breast cancer cell line MDA-MB-231 was used.
(§2) EOL-1 and MDA-MB-231 cells were cultured in a RPMI-1640 cell culture medium supplemented with 10% fetal bovine serum (FBS) and 1% penicillin/streptomycin (Gibco BRL).
(§3) The cancer cell lines stored in a liquid nitrogen tank were each quickly thawed at 37° C. water bath, and centrifuged to remove the DMSO in the freezing medium. The resulting cell pellet was mixed with a culture medium, incubated in a culture flask at 37° C. under 5% CO2 for 2 to 3 days. The EOL-1 cells were sub-cultured by 1:5˜10 dilution in fresh culture medium. For MD-MB-231 cells, the culture medium was removed and the remaining cells were washed with PBS (Phosphate Buffered Saline) and trypsinized by trypsin-EDTA. The detached cells were sub-cultured by 1:5˜10 dilution in fresh culture medium.
(§4) For the cell growth inhibition assay, the cells were seeded in 96-well cell culture plates at 5×10^4 cells/well for EOL-1 and 5×10^3 cells/well for MDA-MB-231 cells in 50 μL and incubated at 37° C. under 5% CO2 for 3 to 6 hr. before the compounds were added.
(§5) Certain compounds of Compounds 1-24 were dissolved in dimethylsulfoxide (DMSO) to a concentration of 10 mM. The DMSO solution containing test compound was diluted with a culture medium to a final concentration of 600 μM, and then diluted 100 times to 6 μM as top dose followed by 1:3 serial dilutions, and then add 50 μL diluted compounds to the 50 μL cells, with a final top dose at 3 μM and the plate was incubated at 37° C. under 5% CO2 for 72 hr. The cell viability was determined by Cell Meter™ Fluorimetric Cell Cytotoxicity Assay Kit (AAT Bioquest) according to the manufacturer's instructions. Briefly, thaw and warm up the Assay Solution (Component A) to 37° C., and mix it thoroughly. Add 20 μL/well (96-well plate) of Assay Solution (Component A). Mix the reagents by shaking the plate gently for 30 seconds. Incubate the cells in a 37° C., 5% CO2 incubator for 1-24 hr., protected from light. Monitor the fluorescence intensity (bottom read) at Ex/Em=540/590 nm. Alternatively, read the O.D. at 570 nm (the reference wavelength should be 600 nm) to determine the cell viability in each well.

BTK wt = BTK wt (Homo sapiens (Human), UniProt Q06187); assay: 33P ATP HotSpot kinase assay, BTK wt; type: biochemical; conditions: 10 μM ATP
Source text: (§6) (See, e.g., Ma, et al, 2008 Expert Opin Drug Discov. 3(6): 607-621.)

MDA-MB-231 cells = assay: Cancer cell growth inhibition, MDA-MB-231; type: cell-based; conditions: Homo sapiens, 72 hr, cell viability
Protocol: as §1, §2, §3, §4, §5

[1] = biological target: FAK phosphorylation at tyrosine 397 (Homo sapiens (Human), UniProt Q05397); assay: Cell-based FAK(Y397) phosphorylation ELISA in PC3 cells; conditions: 1 hr treatment, read-out: EC50 phospho-FAK(Y397)
Protocol: After aspirating the supernatant, 100 μL of RIPA lysis buffer (50 mM Tris-HCl, 1 mM EDTA, 1% NP-40, 0.5% sodium deoxycholate, and 0.1% SDS, pH 7.4, 150 mM NaCl, 1 mM Na3VO4) was added to the cell pellet to lyse the cells on ice for 30 min. After spin at 12,000 rpm for 5 min., 90 μL of the cell lysate was transferred to a fresh tube.
For an enzyme-linked immunosorbent assay (ELISA) assay, 10 μL of the lysate was used for p-FAK(Y397) elisa assay. ELISA was done using the FAK [pY397] Phospho-ELISA Kit (ThermoFisher Scientific, KHO0441) according to the manufacturer's instructions. […] During the first incubation, 50 μL standards of known p-FAK (Y397) content and compound treated samples (10 μL lysate) plus 40 μL diluent buffer were pipetted into the wells and let the p-FAK antigen standards and samples bind to the immobilized (capture) antibody on the plate, a rabbit antibody specific for p-FAK (Y397) 50 μL/well was added to the wells, this antibody serves as a detection antibody by binding to the p-FAK protein during a 3 hr. incubation at room temperature. After washing 4 times, a horseradish peroxidase labeled anti-rabbit IgG was added. This binds to the detection antibody. After a 30 min. incubation and washing to remove all the unbound enzyme, a substrate solution (TMB) was added, which was acted upon by the bound enzyme to produce color.

FAK = FAK (Homo sapiens (Human), UniProt Q05397); assay: 33P ATP HotSpot kinase assay, FAK; conditions: read-out: IC50 FAK, 10 μM ATP
EGFR wt = EGFR wt (Homo sapiens (Human), UniProt P00533); assay: 33P ATP HotSpot kinase assay, EGFR wt; type: biochemical; conditions: 10 μM ATP
Protocol: Then, Kinase assays were performed using the “HotSpot” assay platform.
Briefly, specific kinase/substrate pairs along with required cofactors were prepared in reaction buffer; 20 mM Hepes pH 7.5, 10 mM MgCl2, 1 mM EGTA, 0.02% Brij35, 0.02 mg/ml BSA, 0.1 mM Na3VO4, 2 mM DTT, 1% DMSO. Compounds were delivered into the reaction, followed about 20 minutes later by addition of a mixture of ATP (Sigma, St. Louis Mo.) and ^33P ATP (Perkin Elmer, Waltham Mass.) to a final concentration of 10 μM.
Reactions were carried out at room temperature for 120 min, followed by spotting of the reactions onto P81 ion exchange filter paper (Whatman Inc., Piscataway, N.J.). Unbound phosphate was removed by extensive washing of filters in 0.75% phosphoric acid. […] IC50 values and curve fits were obtained using Prism (GraphPad Software).

[2] = biological target: BTK phosphorylation at tyrosine 223 (Homo sapiens (Human), UniProt Q06187); assay: Immunoblot analysis of phospho-BTK(Y223) in Ramos cells; type: cell-based; conditions: 1 hr treatment, anti-IgM stimulation, western blot
Protocol: Ramos cells were cultured in RPMI-1640 medium with 10% fetal bovine serum (FBS) and 1% penicillin/streptomycin (Gibco BRL). Before the assay, Ramos cells were counted and seeded at 1×10^6 cells/mL, cultured overnight in RPMI-1640 medium with 10% FBS, the cells were centrifuged at 950 rpm for 10 min., then 1˜2×10^6 cells were split into each tube in 300 μL medium. The cells were treated with certain compounds of Compound 1-24 at 0˜3 μM for 1 hr. in 37° C., then the cells were stimulated with 10 μg/mL of anti-IgM (BioLegend) for 5 min., followed by 3 min. spin at 2000 rpm. After aspirating the supernatant, 60 μL of RIPA lysis buffer (50 mM Tris-HCl, 1 mM EDTA, 1% NP-40, 0.5% sodium deoxycholate, and 0.1% SDS, pH 7.4, 150 mM NaCl, 1 mM Na3VO4) was added to the cell pellet to lyse the cells on ice for 30 min. After spin at 10,000 rpm for 5 min., 60 μL of the cell lysate was transferred to a fresh tube, and 20 μL of 4× LDS buffer was added to the tube. The samples were boiled on a 100° C. heat block for 10 min. 25 μL lysate was loaded on to SDS-PAGE gel (NuPAGE™ Novex™ 4-12% Bis-Tris Midi Protein Gels, cat. no. WG1402BOX, ThermoFisher) for western blotting analysis per the manufacturer's instructions. Antibodies used for immunoblot analysis include Btk and p-Btk(Y223) (cat. no. 3553 and 5082; Cell Signaling Technology, Beverly, Mass.). p-Btk(Y223) (cat. no. GTX61791; GeneTex, Inc., Irvine, Calif.). Membranes were detected using infrared fluorescence dye (IRDye® 800CW Donkey anti-Rabbit IgG (H+L), cat. no. P/N 925-32213; IRDye® 680RD Donkey anti-Mouse IgG (H+L), cat. no. P/N 925-68072 and scanned on a LiCor Odyssey scanner (LiCor Biosciences, Lincoln, Nebr.).

ITK = ITK (Homo sapiens (Human), UniProt Q08881); assay: 33P ATP HotSpot kinase assay, ITK; type: biochemical; conditions: 10 μM ATP
Protocol: as §6
(§7) Each of Compound-1 to Compound-24 was measured for its inhibitory activity on TEC family kinases, BMX and ITK. The measurement was carried out in the same process as described above, BMX, ITK enzymes were used.

BMX = BMX (Homo sapiens (Human), UniProt P51813); assay: 33P ATP HotSpot kinase assay, BMX; type: biochemical; conditions: 10 μM ATP
Protocol: as §6, §7

EGFR wt, sequence (P00533 25-1210): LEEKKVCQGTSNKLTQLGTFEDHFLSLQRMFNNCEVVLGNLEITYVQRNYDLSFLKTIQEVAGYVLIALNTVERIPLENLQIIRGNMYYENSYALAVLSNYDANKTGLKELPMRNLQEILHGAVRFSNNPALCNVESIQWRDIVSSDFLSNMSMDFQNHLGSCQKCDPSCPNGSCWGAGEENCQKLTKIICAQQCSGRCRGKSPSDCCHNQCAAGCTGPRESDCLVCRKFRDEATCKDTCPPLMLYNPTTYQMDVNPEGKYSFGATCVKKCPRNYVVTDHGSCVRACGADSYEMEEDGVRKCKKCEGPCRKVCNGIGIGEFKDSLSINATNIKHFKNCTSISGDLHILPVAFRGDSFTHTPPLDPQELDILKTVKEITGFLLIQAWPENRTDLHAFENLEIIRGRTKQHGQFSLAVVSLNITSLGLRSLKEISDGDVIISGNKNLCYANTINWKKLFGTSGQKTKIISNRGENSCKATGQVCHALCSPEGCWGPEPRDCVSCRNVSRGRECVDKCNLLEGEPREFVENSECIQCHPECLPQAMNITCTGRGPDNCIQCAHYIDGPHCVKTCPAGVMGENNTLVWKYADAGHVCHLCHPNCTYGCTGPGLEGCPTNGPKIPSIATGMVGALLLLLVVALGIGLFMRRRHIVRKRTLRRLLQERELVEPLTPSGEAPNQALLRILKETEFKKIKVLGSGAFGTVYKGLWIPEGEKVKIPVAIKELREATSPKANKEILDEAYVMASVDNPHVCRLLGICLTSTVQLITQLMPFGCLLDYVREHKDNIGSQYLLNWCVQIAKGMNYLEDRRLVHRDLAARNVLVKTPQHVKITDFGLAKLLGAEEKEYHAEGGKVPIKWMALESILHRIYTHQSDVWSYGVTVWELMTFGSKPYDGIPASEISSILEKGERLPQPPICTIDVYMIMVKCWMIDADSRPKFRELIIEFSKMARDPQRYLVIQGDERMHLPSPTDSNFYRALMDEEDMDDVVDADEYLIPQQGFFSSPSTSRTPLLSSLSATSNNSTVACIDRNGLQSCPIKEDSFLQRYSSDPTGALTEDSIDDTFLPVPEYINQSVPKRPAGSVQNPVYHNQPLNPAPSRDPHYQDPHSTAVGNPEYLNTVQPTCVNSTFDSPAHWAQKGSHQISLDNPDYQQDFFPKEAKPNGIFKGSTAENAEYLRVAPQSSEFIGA
FAK, sequence (Q05397 whole entry): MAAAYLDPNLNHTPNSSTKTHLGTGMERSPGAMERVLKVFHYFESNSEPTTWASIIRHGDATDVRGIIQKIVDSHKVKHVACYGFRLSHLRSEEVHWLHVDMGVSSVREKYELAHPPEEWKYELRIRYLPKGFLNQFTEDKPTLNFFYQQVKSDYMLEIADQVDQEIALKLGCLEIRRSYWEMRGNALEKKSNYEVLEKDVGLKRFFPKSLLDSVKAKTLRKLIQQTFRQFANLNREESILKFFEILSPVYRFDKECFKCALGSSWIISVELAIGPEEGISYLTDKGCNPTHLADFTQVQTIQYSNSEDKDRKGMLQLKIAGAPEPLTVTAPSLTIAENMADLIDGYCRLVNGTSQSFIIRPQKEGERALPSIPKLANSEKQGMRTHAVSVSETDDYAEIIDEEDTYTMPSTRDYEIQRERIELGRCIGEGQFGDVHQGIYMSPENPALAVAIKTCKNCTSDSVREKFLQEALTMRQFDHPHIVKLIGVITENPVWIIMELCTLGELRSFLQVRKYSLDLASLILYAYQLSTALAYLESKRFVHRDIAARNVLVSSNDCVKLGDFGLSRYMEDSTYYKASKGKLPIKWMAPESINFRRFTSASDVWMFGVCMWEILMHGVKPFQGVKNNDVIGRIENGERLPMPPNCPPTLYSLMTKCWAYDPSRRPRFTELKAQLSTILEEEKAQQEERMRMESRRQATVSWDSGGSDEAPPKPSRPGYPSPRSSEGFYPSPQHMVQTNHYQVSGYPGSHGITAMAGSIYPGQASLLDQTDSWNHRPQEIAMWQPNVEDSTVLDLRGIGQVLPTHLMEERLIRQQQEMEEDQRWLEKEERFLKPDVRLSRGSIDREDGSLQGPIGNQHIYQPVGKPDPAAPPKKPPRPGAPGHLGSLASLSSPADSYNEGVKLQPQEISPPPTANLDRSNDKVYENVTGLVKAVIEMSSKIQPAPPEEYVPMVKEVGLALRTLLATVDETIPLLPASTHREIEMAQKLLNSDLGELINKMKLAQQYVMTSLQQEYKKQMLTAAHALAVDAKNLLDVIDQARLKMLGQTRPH
BTK phosphorylation at tyrosine 223, sequence (Q06187 whole entry): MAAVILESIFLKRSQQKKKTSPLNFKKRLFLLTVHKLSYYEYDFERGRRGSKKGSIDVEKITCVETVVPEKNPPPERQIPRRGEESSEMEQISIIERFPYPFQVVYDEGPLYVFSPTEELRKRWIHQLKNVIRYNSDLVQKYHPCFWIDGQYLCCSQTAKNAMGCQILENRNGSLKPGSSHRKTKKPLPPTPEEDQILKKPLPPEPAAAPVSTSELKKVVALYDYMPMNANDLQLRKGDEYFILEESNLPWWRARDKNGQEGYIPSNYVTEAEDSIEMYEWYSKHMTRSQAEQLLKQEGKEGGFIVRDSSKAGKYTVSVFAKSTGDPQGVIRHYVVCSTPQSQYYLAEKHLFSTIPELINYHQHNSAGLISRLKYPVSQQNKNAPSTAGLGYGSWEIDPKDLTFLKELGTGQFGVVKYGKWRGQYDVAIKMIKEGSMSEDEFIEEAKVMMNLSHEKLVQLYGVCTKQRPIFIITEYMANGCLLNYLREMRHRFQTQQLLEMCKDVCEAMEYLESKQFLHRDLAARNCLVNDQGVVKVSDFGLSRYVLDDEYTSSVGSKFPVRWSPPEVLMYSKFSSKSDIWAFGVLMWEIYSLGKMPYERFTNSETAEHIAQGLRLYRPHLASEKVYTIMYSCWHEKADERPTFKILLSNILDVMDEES
BTK wt, sequence (Q06187 whole entry): as above
ITK, sequence (Q08881 whole entry): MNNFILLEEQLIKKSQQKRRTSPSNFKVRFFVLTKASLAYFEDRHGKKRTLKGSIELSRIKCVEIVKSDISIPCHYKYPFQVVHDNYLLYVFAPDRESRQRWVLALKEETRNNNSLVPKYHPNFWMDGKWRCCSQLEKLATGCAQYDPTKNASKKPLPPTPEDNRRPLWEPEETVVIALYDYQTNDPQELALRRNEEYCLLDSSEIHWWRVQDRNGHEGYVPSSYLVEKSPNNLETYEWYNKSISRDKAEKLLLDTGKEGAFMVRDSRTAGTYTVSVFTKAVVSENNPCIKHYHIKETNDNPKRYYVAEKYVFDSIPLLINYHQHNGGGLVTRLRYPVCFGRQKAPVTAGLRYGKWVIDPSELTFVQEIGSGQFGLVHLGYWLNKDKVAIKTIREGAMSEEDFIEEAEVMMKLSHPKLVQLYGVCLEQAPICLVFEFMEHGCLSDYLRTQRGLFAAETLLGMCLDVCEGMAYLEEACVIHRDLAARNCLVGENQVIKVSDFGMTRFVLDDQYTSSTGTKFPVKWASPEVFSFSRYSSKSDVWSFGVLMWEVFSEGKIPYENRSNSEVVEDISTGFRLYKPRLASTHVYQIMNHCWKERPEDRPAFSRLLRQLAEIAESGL
BMX, sequence (P51813 whole entry): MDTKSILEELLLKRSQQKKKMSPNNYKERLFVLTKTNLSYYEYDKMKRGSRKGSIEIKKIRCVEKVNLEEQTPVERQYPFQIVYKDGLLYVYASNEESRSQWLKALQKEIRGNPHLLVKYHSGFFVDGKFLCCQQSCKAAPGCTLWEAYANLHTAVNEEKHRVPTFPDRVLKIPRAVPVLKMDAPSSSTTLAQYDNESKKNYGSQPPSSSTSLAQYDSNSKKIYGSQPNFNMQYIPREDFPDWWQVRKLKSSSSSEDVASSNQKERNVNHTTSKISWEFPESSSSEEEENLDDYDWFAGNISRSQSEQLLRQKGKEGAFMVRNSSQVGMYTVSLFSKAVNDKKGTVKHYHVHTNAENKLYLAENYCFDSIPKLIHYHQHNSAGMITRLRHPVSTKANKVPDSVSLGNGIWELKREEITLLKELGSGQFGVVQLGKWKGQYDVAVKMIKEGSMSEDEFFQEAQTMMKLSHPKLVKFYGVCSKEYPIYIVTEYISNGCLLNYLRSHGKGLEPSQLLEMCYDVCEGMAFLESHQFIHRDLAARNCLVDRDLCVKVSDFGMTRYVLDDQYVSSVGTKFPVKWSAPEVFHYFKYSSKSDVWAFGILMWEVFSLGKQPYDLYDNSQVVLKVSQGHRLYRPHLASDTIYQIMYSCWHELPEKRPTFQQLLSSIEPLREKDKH
FAK phosphorylation at tyrosine 397, sequence (Q05397 whole entry): as the sequence (Q05397 whole entry) above

| Structure (SMILES) | IC50 (EOL-1 cells) | IC50 (BTK wt) | IC50 (MDA-MB-231 cells) | EC50 [1] | IC50 (FAK) | IC50 (EGFR wt) | EC50 [2] | IC50 (ITK) | IC50 (BMX) |
| --- | --- | --- | --- | --- | --- | --- | --- | --- | --- |
| CN(c1cnccc1CNc1nc(Nc2ccc3c(c2)OCCOCCOCCO3)nc2[nH]ccc12)S(C)(=O)=O [Compound-20, N-methyl-N-[4-[[[2-(2,5,8,11-tetraoxabicyclo[10.4.0]hexadeca-1(16),12,14-trien-14-ylamino)-7H-pyrrolo[2,3-d]pyrimidin-4-yl]amino]methyl]-3-pyridyl]methanesulfonamide] | 2.25 µM | > 1 µM | > 3 µM | 0.1 to 1 µM | 0.0294 µM | > 1 µM | – | – | – |
| C=CC(=O)N1CCC[C@@H](Nc2nc(Nc3ccc(OCCCOC4(CC)OCC(C)(C)CO4)cc3)ncc2F)C1 [Compound-1, 1-[(3R)-3-[[2-[4-[3-[(2-ethyl-5,5-dimethyl-1,3-dioxan-2-yl)oxy]propoxy]anilino]-5-fluoro-pyrimidin-4-yl]amino]-1-piperidyl]prop-2-en-1-one] | > 3 µM | – | > 3 µM | – | – | – | 0.1 to 1 µM | – | – |
| CN([C@@H]1CCCC[C@H]1Oc1nc(Nc2ccc3c(c2)OCCOCCOCCO3)nc2[nH]ccc12)S(C)(=O)=O [Compound-16, N-methyl-N-[(1R,2R)-2-[[2-(2,5,8,11-tetraoxabicyclo[10.4.0]hexadeca-1(16),12,14-trien-14-ylamino)-7H-pyrrolo[2,3-d]pyrimidin-4-yl]oxy]cyclohexyl]methanesulfonamide] | 2 µM | > 1 µM | 3 µM | – | 0.0349 µM | > 1 µM | – | – | – |
| C=CC(=O)N1CCC[C@@H](Nc2nc(Nc3ccc4c(c3)OCCOCCOCCO4)ncc2F)C1 [Compound-2, 1-[(3R)-3-[[5-fluoro-2-(2,5,8,11-tetraoxabicyclo[10.4.0]hexadeca-1(12),13,15-trien-14-ylamino)pyrimidin-4-yl]amino]-1-piperidyl]prop-2-en-1-one] | 2 µM | 0.0734 µM | > 3 µM | – | > 1 µM | > 1 µM | 0.1 to 1 µM | > 1 µM | 0.00846 µM |
| c1cc(Nc2nc(Nc3ccc4c(c3)OCCOCCOCCO4)nc3[nH]cnc23)c2cc[nH]c2c1 [Compound-22, N6-(1H-indol-4-yl)-N2-(2,5,8,11-tetraoxabicyclo[10.4.0]hexadeca-1(12),13,15-trien-14-yl)-9H-purine-2,6-diamine] | 1.2 µM | 0.0214 µM | > 3 µM | – | 0.0424 µM | > 1 µM | – | – | – |
| C=CC(=O)Nc1ccccc1Nc1nc(Nc2ccc3c(c2)OCCOCCOCCO3)ncc1F [Compound-10, N-[2-[[5-fluoro-2-(2,5,8,11-tetraoxabicyclo[10.4.0]hexadeca-1(12),13,15-trien-14-ylamino)pyrimidin-4-yl]amino]phenyl]prop-2-enamide] | – | < 0.1 µM | – | – | > 0.1 µM | > 0.1 µM | 0.1 to 1 µM | > 0.1 µM | > 0.1 µM |
| C=CC(=O)Nc1cccc(Nc2nc(Nc3ccc4c(c3)OCCOCCOCCO4)nc3[nH]cnc23)c1 [Compound-7, N-[3-[[2-(2,5,8,11-tetraoxabicyclo[10.4.0]hexadeca-1(12),13,15-trien-14-ylamino)-9H-purin-6-yl]amino]phenyl]prop-2-enamide] | 2.5 µM | 0.00065 µM | > 3 µM | – | 0.274 µM | 0.208 µM | < 0.1 µM | 0.00135 µM | 0.00041 µM |
| CN(C1CCCC1Oc1nc(Nc2ccc3c(c2)OCCOCCOCCO3)nc2[nH]ccc12)S(C)(=O)=O (stereo not drawn) [Compound-18, N-methyl-N-[2-[[2-(2,5,8,11-tetraoxabicyclo[10.4.0]hexadeca-1(16),12,14-trien-14-ylamino)-7H-pyrrolo[2,3-d]pyrimidin-4-yl]oxy]cyclopentyl]methanesulfonamide] | 0.75 µM | > 1 µM | 1.5 µM | – | – | > 1 µM | – | – | – |
| CCC(=O)Nc1cccc(Nc2nc(Nc3ccc4c(c3)OCCOCCOCCO4)nc3[nH]cnc23)c1 [Compound-8, N-[3-[[2-(2,5,8,11-tetraoxabicyclo[10.4.0]hexadeca-1(12),13,15-trien-14-ylamino)-9H-purin-6-yl]amino]phenyl]propanamide] | – | 0.0888 µM | – | – | 1.13 µM | > 1 µM | 0.1 to 1 µM | 1.29 µM | 0.0464 µM |
| C=CC(=O)Nc1cccc(Nc2nc(Nc3ccc4c(c3)OCCOCCOCCO4)ncc2F)c1 [Compound-6, N-[3-[[5-fluoro-2-(2,5,8,11-tetraoxabicyclo[10.4.0]hexadeca-1(12),13,15-trien-14-ylamino)pyrimidin-4-yl]amino]phenyl]prop-2-enamide] | – | < 0.1 µM | – | – | > 1 µM | 0.732 µM | < 0.1 µM | < 0.1 µM | < 0.1 µM |
| C=CC(=O)N1CCC[C@@H](Nc2nc(Nc3ccc4c(c3)OCCOCCOCCO4)nc3[nH]cnc23)C1 [Compound-3, 1-[(3R)-3-[[2-(2,5,8,11-tetraoxabicyclo[10.4.0]hexadeca-1(12),13,15-trien-14-ylamino)-9H-purin-6-yl]amino]-1-piperidyl]prop-2-en-1-one] | > 3 µM | 0.00317 µM | > 3 µM | – | 1.24 µM | 0.345 µM | < 0.1 µM | 0.0396 µM | 0.00169 µM |
| C=CC(=O)Nc1cccc(Nc2nc(Nc3ccc(OCCCOC4(CC)OCC(C)(C)CO4)cc3)ncc2F)c1 [Compound-5, N-[3-[[2-[4-[3-[(2-ethyl-5,5-dimethyl-1,3-dioxan-2yl)oxy]propoxy]anilino]-5-fluoro-pyrimidin-4-yl]amino]phenyl]prop-2-enamide] | 1.9 µM | < 0.1 µM | 3 µM | – | > 0.1 µM | > 0.1 µM | < 0.1 µM | < 0.1 µM | < 0.1 µM |
| CCC(=O)N1CCC[C@@H](Nc2nc(Nc3ccc4c(c3)OCCOCCOCCO4)nc3[nH]cnc23)C1 [Compound-4, 1-[(3R)-3-[[2-(2,5,8,11-tetraoxabicyclo[10.4.0]hexadeca-1(12),13,15-trien-14-ylamino)-9H-purin-6-yl]amino]-1-piperidyl]propan-1-one] | – | 0.144 µM | – | – | 1.15 µM | – | 0.1 to 1 µM | 1.45 µM | 0.0196 µM |
